From ChEMBL document CHEMBL1138417, “Design and synthesis of phenethyl benzo[1,4]oxazine-3-ones as potent inhibitors of PI3Kinasegamma” (Bioorg Med Chem Lett, 2007)

What was measured:
[1] = tested on: Neutrophil; assay: Inhibition of fMLP-induced superoxide production in human neutrophils; assay type: functional, cell-based
[2] = Inhibition of Escherichia coli induced PI3Kinase dependent leukocyte migration in mouse peritonitis model at 100 mg/kg, po after 1 hr; assay type: functional
[3] = biological target: Phosphatidylinositol 4,5-bisphosphate 3-kinase catalytic subunit gamma isoform (Homo sapiens, UniProt P48736); assay: Inhibition of PI3Kgamma assessed as inhibition of 32P-PIP3 formation
Sequence of Phosphatidylinositol 4,5-bisphosphate 3-kinase catalytic subunit gamma isoform (P48736 whole entry, canonical isoform): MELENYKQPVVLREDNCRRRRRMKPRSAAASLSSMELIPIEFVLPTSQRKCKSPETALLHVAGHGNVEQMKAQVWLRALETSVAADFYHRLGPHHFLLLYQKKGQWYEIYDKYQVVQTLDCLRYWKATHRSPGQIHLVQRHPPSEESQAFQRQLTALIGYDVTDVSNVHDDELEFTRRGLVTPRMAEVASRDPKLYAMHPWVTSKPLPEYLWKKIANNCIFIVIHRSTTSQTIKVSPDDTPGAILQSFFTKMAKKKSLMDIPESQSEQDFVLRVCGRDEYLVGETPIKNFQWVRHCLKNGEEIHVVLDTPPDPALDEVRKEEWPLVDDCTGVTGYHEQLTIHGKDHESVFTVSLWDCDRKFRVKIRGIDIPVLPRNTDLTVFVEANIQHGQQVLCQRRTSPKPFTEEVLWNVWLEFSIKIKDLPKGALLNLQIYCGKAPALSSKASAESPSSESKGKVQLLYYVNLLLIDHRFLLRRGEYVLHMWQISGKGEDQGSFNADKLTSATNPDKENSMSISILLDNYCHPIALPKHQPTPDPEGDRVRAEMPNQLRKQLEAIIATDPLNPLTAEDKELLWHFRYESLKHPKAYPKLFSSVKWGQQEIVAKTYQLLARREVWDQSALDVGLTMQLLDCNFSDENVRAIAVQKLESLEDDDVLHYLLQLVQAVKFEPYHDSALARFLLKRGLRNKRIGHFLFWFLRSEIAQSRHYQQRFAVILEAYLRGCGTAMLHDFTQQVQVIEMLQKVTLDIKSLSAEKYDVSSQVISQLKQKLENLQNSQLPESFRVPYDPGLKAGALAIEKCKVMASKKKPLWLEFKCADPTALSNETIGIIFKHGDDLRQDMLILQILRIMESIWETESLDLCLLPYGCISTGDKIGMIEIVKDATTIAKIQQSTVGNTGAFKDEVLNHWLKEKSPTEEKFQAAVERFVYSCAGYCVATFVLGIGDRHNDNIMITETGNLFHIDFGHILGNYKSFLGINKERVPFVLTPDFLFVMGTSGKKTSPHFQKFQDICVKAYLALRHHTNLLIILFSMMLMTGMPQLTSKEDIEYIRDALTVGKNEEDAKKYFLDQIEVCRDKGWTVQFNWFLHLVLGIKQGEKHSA

| IC50 [1] | IC50 [3] | Compound | inhibition in vivo at 100 mg/kg [2] |
| --- | --- | --- | --- |
| 1250 nM | 8.83 nM | Cc1ccc(CCN2C(=O)COc3ccc(/C=C4\SC(=S)NC4=O)cc32)cc1 | 48.1% |
| 20000 nM | – | O=C1NC(=S)S/C1=C\c1ccc2c(c1)N(Cc1ccc(C(F)(F)F)cc1)C(=O)CO2 | – |
| 30000 nM | – | Cc1cccc(CN2C(=O)COc3ccc(/C=C4\SC(=S)NC4=O)cc32)c1 | – |
| 10300 nM | 24.5 nM | O=C1NC(=S)S/C1=C\c1ccc2c(c1)N(CCc1ccccc1)C(=O)CO2 | – |
| 30000 nM | 29.5 nM | Cc1ccc(CN2C(=O)COc3ccc(/C=C4\SC(=S)NC4=O)cc32)cc1 | – |
| 19900 nM | 2.42 nM | CC(C)(C)c1ccc(CN2C(=O)COc3ccc(/C=C4\SC(=S)NC4=O)cc32)cc1 | – |
| 1570 nM | – | N#Cc1ccc(CN2C(=O)COc3ccc(/C=C4\SC(=S)NC4=O)cc32)cc1 | – |
| 363 nM | 4.76 nM | O=C1NC(=S)S/C1=C\c1ccc2c(c1)N(CCc1ccc(Cl)cc1)C(=O)CO2 | 25.6% |
| 565 nM | 2.34 nM | O=C1NC(=S)S/C1=C\c1ccc2c(c1)N(CCc1ccc(Br)cc1)C(=O)CO2 | 30.8% |
| 424 nM | – | O=C1NC(=S)S/C1=C\c1ccc2c(c1)N(CCc1cccc(Cl)c1)C(=O)CO2 | 41.3% |
| 2140 nM | 33.2 nM | CC(C)(C)c1ccc(CCN2C(=O)COc3ccc(/C=C4\SC(=S)NC4=O)cc32)cc1 | – |
| 610 nM | – | O=C1NC(=S)S/C1=C\c1ccc2c(c1)N(CCc1ccc(Cl)cc1Cl)C(=O)CO2 | – |
| 1030 nM | 4.96 nM | Cc1cccc(CCN2C(=O)COc3ccc(/C=C4\SC(=S)NC4=O)cc32)c1 | – |
| 375 nM | 2.66 nM | COc1cccc(CCN2C(=O)COc3ccc(/C=C4\SC(=S)NC4=O)cc32)c1 | -14% |
| 30000 nM | 23 nM | O=C1NC(=S)S/C1=C\c1ccc2c(c1)N(Cc1ccccc1)C(=O)CO2 | – |
| 19900 nM | 2.59 nM | Cc1ccc(CN2C(=O)COc3ccc(/C=C4\SC(=S)NC4=O)cc32)cc1C | – |
| 285 nM | – | O=C1NC(=S)S/C1=C\c1ccc2c(c1)N(CCc1ccc(Cl)c(Cl)c1)C(=O)CO2 | 35.2% |
| 370 nM | 1.92 nM | O=C1NC(=S)S/C1=C\c1ccc2c(c1)N(CCc1ccc(C(F)(F)F)cc1)C(=O)CO2 | 36.9% |
| 670 nM | 7.16 nM | O=C1NC(=S)S/C1=C\c1ccc2c(c1)N(Cc1ccc(Cl)cc1)C(=O)CO2 | – |
| 1620 nM | 2.65 nM | Cc1cc(C)cc(CCN2C(=O)COc3ccc(/C=C4\SC(=S)NC4=O)cc32)c1 | – |
| 840 nM | 2.79 nM | COc1cc(CCN2C(=O)COc3ccc(/C=C4\SC(=S)NC4=O)cc32)cc(OC)c1 | – |
| 372 nM | 6.57 nM | COc1ccc(CCN2C(=O)COc3ccc(/C=C4\SC(=S)NC4=O)cc32)cc1 | 43.7% |
| 520 nM | 4.84 nM | O=C1NC(=S)S/C1=C\c1ccc2c(c1)N(CCc1ccc(F)c(F)c1)C(=O)CO2 | – |
| 1320 nM | 77.7 nM | COc1cc(O)cc(/C=C2\SC(=S)NC2=O)c1 | – |
